Test results taken from paper PMC10892409, “Exploring Ocimum basilicum’s Secondary Metabolites: Inhibition and Molecular Docking against Rhynchophorus ferrugineus for Optimal Action” (Plants, 2024).
Values after ≈ are worked out from the molar mass of the structure shown. Values joined by “and” are separate entries in the source; they are usually repeats but may differ in a detail not shown here. Equal values may be shown once.

Columns and labels:
ALPs [1] = test: In vitro ALP inhibition, larval homogenate; format: biochemical, Rhynchophorus ferrugineus; conditions: for IC50 ALPs in vitro: fourth-instar larvae preparation
Method: (§1) The R. ferrugineus were homogenized larvae in a buffer (sodium phosphate, 40 mM, and pH 7.4); then, sodium chloride (10 mM dissolved in 1% (w/v) triton X-100) was added. During centrifugation (Sigma 3–30 KS), the homogenate was chilled to 4 °C and spun at a speed of 5000 rpm (20 min). The supernatant was either immediately put into action for an enzymatic test or frozen and kept at […] for later use. Each test was repeated three times. The protein content was determined using the same protocol employed by Lowry with modification using protein extract (100 µL) combined with an alkaline copper solution and a Folin–Ciocalteu phenol reagent (2 mL and 200 µL, respectively). The intensity of the resulting blue hue was evaluated during 30 min of incubation at 25 °C. Using an ELISA plate reader and a BSA standard curve, we could calculate the protein concentration by analyzing the absorbance at 600 nm (Multiskan SkyHigh Microplate Spectrophotometer, Thermo Fisher Scientific, Waltham, MA, USA).
(§2) Activities of ACPs and ALPs were evaluated using a modified version of the Asakura technique. The ACP test required incubating 100 μL of crude enzyme in a buffer of 650 μL of sodium acetate (pH: 5.0; 50 mM with ACPs) or 250 μL of Tris–HCl (at 50 mM; pH: 8.0 with ALPs) and p-nitrophenyl phosphate (5.5 mM). For 30 min; the various mixes were kept at 37 °C for incubation. Thereafter, 500 μL of NaOH (0.5 N) stopped the reaction. Using an ELISA plate reader, we determined the mixture’s 415 nm absorbance value (Multiskan SkyHigh Microplate Spectrophotometer). The ACP- and ALP-specific activity was estimated as OD 415/mg protein·h.

AChE [2] = test: In vitro AChE inhibition, larval homogenate (Ellman); format: biochemical, Rhynchophorus ferrugineus; conditions: fourth-instar larvae preparation
Method: as §1
(§3) The enzyme AChE was assessed using a substrate of acetylthiocholine iodide and evaluated using 5,5′-dithiobis [2-nitrbenzoic acid] (DTNB), according to [94]. Each well contained a sodium phosphate buffer (140 µL) (pH: 8.0; 100 mM), DTNB (10 µL), extract (20 µL)/components at 1, 10, 50, 100, and 1000 µg/mL in DMSO and underwent 15 min of incubation at 25 °C. Acetylthiocholine (ATCh) was added to start the reaction (10 µL). The ATCh enzymatic hydrolysis produced a 5-thio-2-nitrobenzoate anion as a color (yellow) that was detected by measuring its wavelength, i.e., 412 nm, thereby allowing the researchers to track the rate of ATCh hydrolysis (15 min). Each response was performed three times on a microplate and examined using an ELISA plate reader to determine the 412 nm absorbance of the combination (Multiskan SkyHigh Microplate Spectrophotometer). The AChE-specific activity was measured as OD412/mg protein.h. based on observing the effect of raising the quantities of all of these compounds during the tests on the inhibition results, and the inhibitory concentration (IC50) was calculated. Then, a computer algorithm was used to determine the IC50 values (Version 9.01 of GraphPad Prism by Inc., 2020, San Diego, CA, USA).

R. ferrugineus adults = test: Antifeedant/insecticidal test on adults with treated sugarcane stem (probit LC50); format: in vivo, Rhynchophorus ferrugineus; conditions: Rhynchophorus ferrugineus, 24 h, after 1 day of treatment, 95% confidence limits in brackets, read-out: LC50
Method: (§4) Over the course of 40 days, an O. basilicum cell suspension was cultivated in this investigation, and then the extract was obtained. […] Long segments of sugarcane stem were employed in the insect breeding lab at King Faisal University’s Research and Training Center to raise adult R. ferrugineus larvae. For this experiment, we used a topical application technique with larvae stored at 4 °C for five minutes to test the extract’s activity. Using a hand-operated micro-applicator (Burkard Manufacturing Co., Ltd., Hertfordshire, UK, collected using a […] micro-syringe), extracts at escalating ratios (10 µL) were injected into the dorsal surface of the larvae (Ito Corp.; MS-N50, Shizuoka, Japan). Five larvae per box in a series of three replicates were fed on sugarcane stem pieces measuring 10 cm in length. The LD50 was calculated by measuring the percentage of dead larvae at 24, 48, 72, and 96 h following a topical application. The antifeedant impact was determined in adults by giving them 10 cm sugarcane stem segments cut in half longitudinally. Long strips of sugarcane stem (32 cm^2) were immersed in the previous serial extract and compound concentration (10 mL) for ten seconds before they were dried in ambient air using a plastic box. Each box included a new pair of larvae (a male and a female). Ten sets of each treatment were performed. Data on how well the subjects ate were evaluated at 24, 48, 72, and 96 h.
(§5) The tissue culture parameters were calculated quantitatively from three independent sets of samples, and the mean SD was used to describe the findings. Toxicity parameters were determined quantitatively using a 10-replicate sample, and means and standard deviations were used to present the data. The median dosage obtained from a dose–response regression was used to calculate the LC50 value. By analyzing the comparative growth rate vs. the crude extract logarithm using least squares regression, the range of LC50 was calculated with 95% confidence. A simple variance study was performed on the increased weight and enzymatic activity data (ANOVA). The distinction between the means was accomplished using the Student–Newman–Keuls (SNK) test. Additionally, SPSS version 25 was used to find p < 0.05 significant deviations from the mean.

[3] = test system: fourth-instar larvae of R. ferrugineus; test: Topical application (contact) to fourth-instar larvae (probit LD50); format: in vivo, Rhynchophorus ferrugineus; conditions: after 1 day of treatment, 95% confidence limits in brackets
Method: as §4, §5

AChE [4] = test: In vivo AChE inhibition in treated fourth-instar larvae; design: species or system Rhynchophorus ferrugineus; conditions: fourth-instar larvae treated 24 h
Method: as §3
(§6) Each enzyme’s in vivo impact was measured after treating larvae with an extract or pure chemicals. An inhibitor-free test combination served as a negative control. We determined the absorbance of the enzymes throughout a spectrum of wavelengths using a rapid reader for ELISA plates (Multiskan SkyHigh Microplate Spectrophotometer). Extracts and pure chemicals were used to treat R. ferrugineus larvae at previous serial concentrations, and their AChE, ACP, ALP, and GABA-T activity was tested in vivo using the methods outlined above. Larvae spent a day on leaf disks treated with chemicals or extract.

ALPs [5] = test: In vivo ALP inhibition in treated fourth-instar larvae; design: species or system Rhynchophorus ferrugineus; conditions: fourth-instar larvae treated 24 h
Method: as §2, §6

ACPs [6] = test: In vitro ACP inhibition, larval homogenate; format: biochemical, Rhynchophorus ferrugineus; conditions: fourth-instar larvae preparation
Method: as §1, §2

ACPs [7] = test: In vivo ACP inhibition in treated fourth-instar larvae; design: species or system Rhynchophorus ferrugineus; conditions: fourth-instar larvae treated 24 h
Method: as §2, §6

[8] = listed as quercetin-3-O-rutinoside

O=C(/C=C/c1ccc(O)c(O)c1)O[C@@H](C(=O)O)[C@@H](O)C(=O)O [Caftaric acid]
IC50 ALP in vitro (ALPs [1]): 158 µg/mL (≈ 505 µM)
IC50 ALPs in vitro (ALPs [1]; listed as caftaric acid): < 200 µg/mL
IC50 AChE in vitro (AChE [2]): 156 ± 1.49 µg/mL
IC50 AChE in vitro (AChE [2]; listed as caftaric acid): 156.4 µg/mL
LC50 (R. ferrugineus adults): 1490 µg/mL (≈ 4780 µM)
LD50 [3]: 18.79 (17.82–19.93) µg/Larvae
LD50 ([3]; listed as caftaric acid): 18.79 µg/Larvae
IC50 AChE in vivo (AChE [4]): 429 ± 1.49 µg/mL
IC50 AChE in vivo (AChE [4]; listed as caftaric acid): 429.2 µg/mL

COc1cc(/C=C/C(=O)O[C@@H](C(=O)O)[C@@H](O)C(=O)O)ccc1O [Fertaric acid]
IC50 ALPs in vivo (ALPs [5]; listed as fertaric acid): 436.8 µg/mL
IC50 ALP in vitro (ALPs [1]): 137 µg/mL (≈ 421 µM)
IC50 ALPs in vitro (ALPs [1]; listed as fertaric acid): < 200 µg/mL
IC50 AChE in vitro (AChE [2]): 124 ± 1.18 µg/mL
IC50 AChE in vitro (AChE [2]; listed as fertaric acid): 123.6 µg/mL
IC50 ACPs in vitro (ACPs [6]; listed as fertaric acid): 133.5 µg/mL (≈ 409 µM)
LC50 (R. ferrugineus adults): 1530 µg/mL (≈ 4680 µM)
IC50 ACPs in vivo (ACPs [7]; listed as fertaric acid): 349.4 µg/mL
LD50 [3]: 19.46 (18.23–20.76) µg/Larvae
LD50 ([3]; listed as fertaric acid): 19.46 µg/Larvae
IC50 AChE in vivo (AChE [4]): 385 ± 1.18 µg/mL
IC50 AChE in vivo (AChE [4]; listed as fertaric acid): 384.7 µg/mL

O=C(O)C[C@H](C(=O)O)[C@@H](O)C(=O)O [Isocitric acid]
IC50 ALPs in vivo (ALPs [5]; listed as isocitric acid): 448.3 µg/mL
IC50 ALP in vitro (ALPs [1]): 195 µg/mL (≈ 1010 µM)
IC50 ALPs in vitro (ALPs [1]): < 200 µg/mL
IC50 AChE in vitro (AChE [2]): 197.3 µg/mL and 197 ± 1.76 µg/mL
IC50 ACPs in vitro (ACPs [6]): 192.4 µg/mL (≈ 1000 µM)
LC50 (R. ferrugineus adults): 1800 µg/mL (≈ 9340 µM)
IC50 ACPs in vivo (ACPs [7]; listed as isocitric acid): 415.6 µg/mL
LD50 [3]: 22.7 (21.4–23.8) µg/Larvae
LD50 ([3]; listed as isocitric acid): 22.7 µg/Larvae
IC50 AChE in vivo (AChE [4]): 494 ± 1.76 µg/mL
IC50 AChE in vivo (AChE [4]; listed as isocitric acid): 494.2 µg/mL

O=C(/C=C/c1ccc(O)c(O)c1)O/C=C\c1ccc(O)c(O)c1 [Nepetoidin B]
IC50 ALPs in vivo (ALPs [5]; listed as nepetoidin B): 307.9 µg/mL
IC50 ALP in vitro (ALPs [1]): 166 µg/mL (≈ 529 µM)
IC50 ALPs in vitro (ALPs [1]; listed as nepetoidin B): < 200 µg/mL
IC50 AChE in vitro (AChE [2]): 147 ± 1.38 µg/mL
IC50 AChE in vitro (AChE [2]; listed as nepetoidin B): 147.2 µg/mL
IC50 ACPs in vitro (ACPs [6]; listed as nepetoidin B): 154.2 µg/mL (≈ 491 µM)
LC50 (R. ferrugineus adults): 1270 µg/mL (≈ 4050 µM)
IC50 ACPs in vivo (ACPs [7]; listed as nepetoidin B): < 330 µg/mL and 294.3 µg/mL
LD50 [3]: 11.5 (10.9–12.1) µg/Larvae
LD50 ([3]; listed as nepetoidin B): 11.5 µg/Larvae
IC50 AChE in vivo (AChE [4]): 282 ± 1.38 µg/mL
IC50 AChE in vivo (AChE [4]; listed as nepetoidin B): 281.7 µg/mL

C[C@@H]1O[C@@H](OC[C@H]2O[C@@H](Oc3c(-c4ccc(O)c(O)c4)oc4cc(O)cc(O)c4c3=O)[C@H](O)[C@@H](O)[C@@H]2O)[C@H](O)[C@H](O)[C@H]1O [Quercetin-3-O-rutinoside]
IC50 ALP in vitro (ALPs [1]): 102 µg/mL (≈ 168 µM)
IC50 ALPs in vitro (ALPs [1]; [8]): < 200 µg/mL
IC50 AChE in vitro (AChE [2]): 98 ± 0.87 µg/mL
IC50 AChE in vitro (AChE [2]; [8]): 98.4 µg/mL
IC50 ACPs in vitro (ACPs [6]; [8]): 104.8 µg/mL (≈ 172 µM)
LC50 (R. ferrugineus adults): 1170 µg/mL (≈ 1910 µM)
IC50 ACPs in vivo (ACPs [7]; [8]): 298.4 µg/mL
LD50 [3]: 16.2 (15.3–17.2) µg/Larvae
LD50 [3, 8]: 16.2 µg/Larvae
IC50 AChE in vivo (AChE [4]): 348 ± 0.87 µg/mL
IC50 AChE in vivo (AChE [4]; [8]): 347.6 µg/mL

O=C(C=Cc1ccc(O)c(O)c1)OC(Cc1ccc(O)c(O)c1)C(=O)OC1OC(CO)C(O)C(O)C1O (centres unmarked) [Rosmarinic acid glucoside]
IC50 ALPs in vivo (ALPs [5]; listed as rosmarinyl glucoside): 387.4 µg/mL
IC50 ALP in vitro (ALPs [1]): 120 µg/mL (≈ 229 µM)
IC50 ALPs in vitro (ALPs [1]; listed as rosmarinyl glucoside): < 200 µg/mL
IC50 AChE in vitro (AChE [2]): 89 ± 0.85 µg/mL
IC50 AChE in vitro (AChE [2]; listed as rosmarinyl glucoside): 89.4 µg/mL
IC50 ACPs in vitro (ACPs [6]; listed as rosmarinyl glucoside): 123.6 µg/mL (≈ 237 µM)
LC50 (R. ferrugineus adults): 1230 µg/mL (≈ 2350 µM)
IC50 ACPs in vivo (ACPs [7]; listed as rosmarinyl glucoside): 318.8 µg/mL
LD50 ([3]; listed as Rosmarinyl glucoside): 17.2 (15.7–18.1) µg/Larvae
LD50 ([3]; listed as rosmarinyl glucoside): 17.2 µg/Larvae
IC50 AChE in vivo (AChE [4]): 313 ± 0.85 µg/mL
IC50 AChE in vivo (AChE [4]; listed as rosmarinyl glucoside): 312.7 µg/mL

Chicoric acid
IC50 ALPs in vivo (ALPs [5]; listed as chicoric acid): 237.2 µg/mL
IC50 ALPs in vitro (ALPs [1]; listed as chicoric acid): < 200 µg/mL
IC50 AChE in vitro (AChE [2]): 108 ± 1.07 µg/mL
IC50 AChE in vitro (AChE [2]; listed as chicoric acid): 107.5 µg/mL
IC50 ACPs in vitro (ACPs [6]; listed as chicoric acid): 101.7 µg/mL
IC50 ACPs in vivo (ACPs [7]; listed as chicoric acid): < 330 µg/mL and 204.8 µg/mL
LD50 [3]: 9.45 (9.07–10.45) µg/Larvae
LD50 ([3]; listed as chicoric acid): 9.45 µg/Larvae
IC50 AChE in vivo (AChE [4]): 213 ± 1.07 µg/mL
IC50 AChE in vivo (AChE [4]; listed as chicoric acid): 211.6 µg/mL
